From the NIST ThermoML archive (doi:10.1016/j.fluid.2014.09.014)
± gives the expanded uncertainty stated by the source.

Experiment: refractive index (other wavelength) (dimensionless); xn = mol fraction of the nth substance listed
Conditions: 298.15 K, 101 kPa, Liquid, Standard Abbe refractometry

CC(C)OC(C)C [diisopropyl ether] + CC(C)O
refractive index
Conditions	Wavelength=587.6 nm	Wavelength=589.3 nm	Wavelength=632.8 nm	Wavelength=644 nm
x1 = 0.0277	–	1.37492 ± 0.00032	1.3736 ± 0.00032	1.37329 ± 0.00032
x1 = 0.0507	–	1.37483 ± 0.00032	1.37352 ± 0.00032	1.37322 ± 0.00032
x1 = 0.051	–	1.37489 ± 0.00032	1.37358 ± 0.00032	1.37327 ± 0.00032
x1 = 0.0717	–	1.37462 ± 0.00032	1.37331 ± 0.00032	1.373 ± 0.00032
x1 = 0.1528	–	1.37401 ± 0.00032	1.3727 ± 0.00032	1.3724 ± 0.00032
x1 = 0.1553	–	1.37401 ± 0.00032	1.3727 ± 0.00032	1.3724 ± 0.00032
x1 = 0.1938	–	1.37373 ± 0.00033	1.37243 ± 0.00033	1.37213 ± 0.00033
x1 = 0.2029	–	1.37346 ± 0.00033	1.37215 ± 0.00033	1.37185 ± 0.00033
x1 = 0.245	–	1.37306 ± 0.00033	1.37177 ± 0.00033	1.37147 ± 0.00033
x1 = 0.297	–	1.37259 ± 0.00034	1.3713 ± 0.00034	1.371 ± 0.00034
x1 = 0.2973	–	1.37284 ± 0.00034	1.37156 ± 0.00034	1.37126 ± 0.00034
x1 = 0.3068	–	1.37238 ± 0.00034	1.37108 ± 0.00034	1.37078 ± 0.00034
x1 = 0.398	–	1.37122 ± 0.00035	1.36993 ± 0.00035	1.36964 ± 0.00035
x1 = 0.4609	–	1.37063 ± 0.00035	1.36933 ± 0.00035	1.36903 ± 0.00035
x1 = 0.5434	1.36987 ± 0.00036	1.36981 ± 0.00036	1.36853 ± 0.00036	1.36823 ± 0.00036
x1 = 0.6032	1.3693 ± 0.00037	1.36925 ± 0.00037	1.36797 ± 0.00037	1.36767 ± 0.00037
x1 = 0.6371	1.36894 ± 0.00038	1.36889 ± 0.00038	1.36762 ± 0.00038	1.36731 ± 0.00038
x1 = 0.701	1.36828 ± 0.00039	1.36823 ± 0.00039	1.36695 ± 0.00039	1.36666 ± 0.00039
x1 = 0.754	1.36792 ± 0.00039	1.36786 ± 0.00039	1.36659 ± 0.00039	1.36629 ± 0.00039
x1 = 0.791	1.36756 ± 0.0004	1.3675 ± 0.0004	1.36623 ± 0.0004	1.36593 ± 0.0004
x1 = 0.8296	1.36723 ± 0.00041	1.36717 ± 0.00041	1.36589 ± 0.00041	1.36559 ± 0.00041
x1 = 0.8864	1.367 ± 0.00042	1.36695 ± 0.00042	1.36567 ± 0.00042	1.36537 ± 0.00042
x1 = 0.8903	1.36659 ± 0.00042	1.36653 ± 0.00042	1.36526 ± 0.00042	1.36497 ± 0.00042
x1 = 0.9113	1.3667 ± 0.00042	1.36631 ± 0.00042	1.36504 ± 0.00042	1.36475 ± 0.00042
x1 = 0.9547	1.36596 ± 0.00043	1.36587 ± 0.00043	1.36459 ± 0.00043	–
x1 = 0.973	1.3656 ± 0.00043	1.36557 ± 0.00043	1.3643 ± 0.00043	–
x1 = 0.9771	1.36557 ± 0.00043	1.36551 ± 0.00043	1.36423 ± 0.00043	–
x1 = 1	1.36535 ± 0.00044	1.3653 ± 0.00044	1.36402 ± 0.00043	–
